We go through 2 compounds from article PMC7118210 (Frontiers in Pharmacology, 2020).

Data set [1] is described as follows: Multiple-dose pharmacokinetics in rats. The class given is in vivo, Sprague Dawley rats. As to the method:
The optimal volume and activity in unit volume of enzyme solution [0.2 M acetic acid/water solution: 0.2 M ammonium acetate/water solution, 15:35 (v/v)] were determined through a pretest of the enzyme (rat plasma, 10 μl, 10 U μl^-1; dog plasma, 10 μl, 10 U μl^-1; human plasma, 20 μl, 20 U μl^-1; human urine, 10 μl, 10 U μl^-1). After enzyme incubation, 10 μl of IS solution was added to the plasma and urine samples (2 μg ml^-1 quercetin 3-β-D-glucoside for rat and dog plasma; 583 ng ml^-1 naringin-D4 and 160 ng ml^-1 naringenin-D4 for human plasma; and 9,710 ng ml^-1 naringin-D4 and 6,000 ng ml^-1 naringenin-D4 for human urine). To each fecal sample, 9-fold methanol-normal saline (2:1, v/v) was added, mixed (18,000 rpm, 15 min) by vortexing and centrifuged (10 min, 9,000 rpm, 4°C). Next, 10 μl IS solution (971 ng ml^-1 naringin-D4 and 600 ng ml^-1 naringenin-D4) was added to the supernatants of feces (200 μl) without enzyme incubation. […] The solid material was dissolved with acetonitrile-water (1:1, v/v) and injected into the ultra high-performance liquid chromatography coupled with triple quadrupole mass spectrometry (UHPLC/MS/MS) system as described below. The analysis of nonclinical and clinical samples was performed with a UHPLC/MS/MS system that consisted of a Shimadzu Nexera X2 ultra high-performance liquid chromatography (UHPLC) (Shimadzu Corp., Kyoto, Japan) coupled with an AB Sciex API4000 triple-quadrupole mass spectrometry (MS/MS) system (AB Sciex, Foster City, CA, USA) equipped with an electrospray ionization source and controlled by Analyst (v. 1.6.2) software. […] The injection volume was 10 μl with the flow rate of 0.3 ml min^-1 for plasma, and 0.4 ml min^-1 for urine and feces. The compounds were detected by multiple reaction monitoring in the negative ion electrospray mode. The electrospray source conditions were as follows: ion source gas1 30 psi, ion source gas2 60 psi, curtain gas 20 psi, collisionally activated dissociation (CAD) gas 8 psi, temperature 500°C, and ion spray voltage −4,500 V. Zero air was used for ion source gas1 and ion source gas2 and nitrogen for curtain gas and CAD gas. […] All pharmacokinetic and excretion parameters were expressed as mean ± standard deviation (SD). All mean and SD values were reported to three significant figures. The pharmacokinetic parameters were calculated using the Phoenix WinNonlin software (Version 6.4, Pharsight Corp., Cary, NC, USA) and compared using the Student's t-test (p < 0.05) in SPSS 18.0 (SPSS Inc., Chicago, IL, USA). […] For the multiple-dose studies, pharmacokinetic parameters included the mean plasma level at steady state, Tmax, t1/2, the percent fluctuation, and the accumulation index (Table 3). […] In addition, we compared the pharmacokinetic parameters obtained from males and females (Tables 4–6).

A further data set has as its target T1, CYP 2D6 (Homo sapiens, UniProt P10635).
T1 construct: human liver microsomes (2.25 μl); tissue RILD Research Institute for Live Diseases (Shanghai, China) Co.Ltd; host or cells: human liver microsomes, 10-donor pooled
The data set is described as follows: CYP enzyme pathway, human liver microsomes with quinidine (system III-human). The class given is in vitro ADME. Particulars: CYP2D6; of six metabolites measured in system III-human. The method, then: Five single inhibitor working solutions were separately added. Their concentrations were as follows: α-naphthoflavone (0.04 mM) for CYP 1A2, sulfaphenazole (0.8 mM) for CYP 2C9, (+/-)-N-3-benzylnirvanol (0.8 mM) for CYP 2C19, quinidine (0.08 mM) for CYP 2D6, and ketoconazole (0.04 mM) for CYP 3A4/5. All protein concentrations were 0.15 mg ml^-1 in the incubation system, except 0.3 mg ml^-1 for the sulfaphenazole working solution. Then, NADPH (10 mM, 30 μl) was added and the mixed solution incubated for 45 min. Finally, cold acetonitrile (600 μl, containing 100 ng ml^-1 flufenamic acid) was added to every tube, mixed by vortexing, centrifuged for 30 min at 14,000 g and 4°C, and the supernatants transferred into centrifuge tubes and injected into the UHPLC/MS/MS system as described above. Incubations were run in triplicate experiments.
To analyze compounds in incubation system III-human, a Luna C18 column (Phenomenex Inc., Torrance, CA, USA; 2.0 mm × 50 mm, 5 μm) was used at 40°C. The mobile phase consisted of 0.1% formic acid (v/v) in water (A) and 0.1% formic acid in acetonitrile (B). […] The injection volume was 10 μl with flow rate of 0.2 ml min^-1. The compounds were detected by multiple reaction monitoring in the negative ion electrospray mode.
(Microsomes from liver hold many membrane-bound enzymes, among them those of drug oxidation.)

On the set-up of data set [2]: method as in Liu M. et al., 2011; Li et al., 2014. Particulars: Sprague-Dawley rats, 1,250 mg kg^-1 day^-1 for 184 days; ref Liu M. et al., 2011; Li et al., 2014; cited from earlier work.
The mark [3] stands for this setting: naringin 42 mg kg^-1 multiple dose, rat, female.
Where [4] appears, read: naringin 42 mg kg^-1 multiple dose, rat, male.
Setting [5] is: naringin 42 mg kg^-1 p.o. three times a day, multiple dose, rat.

Structures are written as SMILES.

T1 sequence (P10635 whole entry): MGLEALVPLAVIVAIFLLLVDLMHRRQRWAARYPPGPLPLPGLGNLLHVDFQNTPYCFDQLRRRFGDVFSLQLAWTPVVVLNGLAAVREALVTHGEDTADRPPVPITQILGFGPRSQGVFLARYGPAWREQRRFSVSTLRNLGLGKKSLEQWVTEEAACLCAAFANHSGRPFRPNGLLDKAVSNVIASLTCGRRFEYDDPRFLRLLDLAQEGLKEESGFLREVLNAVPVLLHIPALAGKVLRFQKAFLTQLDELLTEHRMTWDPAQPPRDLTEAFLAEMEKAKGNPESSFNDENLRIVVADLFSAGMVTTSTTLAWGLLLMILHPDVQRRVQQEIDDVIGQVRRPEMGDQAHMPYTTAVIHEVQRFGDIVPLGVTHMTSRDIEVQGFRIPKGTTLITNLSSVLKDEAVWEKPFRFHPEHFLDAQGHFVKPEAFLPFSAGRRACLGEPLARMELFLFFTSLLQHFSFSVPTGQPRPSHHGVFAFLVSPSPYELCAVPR

Take `O=C1C[C@@H](c2ccc(O)cc2)Oc2cc(O)cc(O)c21` [naringenin, Naringenin]: the CavSS worked out at 600 ± 517 ng/mL in data set [1] (setting [3]), 178 ± 90.8 ng/mL in data set [1] (setting [4]) and 389 ± 415 ng/mL in data set [1] (setting [5]). The “accumulation in multiple-dose study” value in data set [1] (rat, in vivo) is “no significant accumulation”.
On to `C[C@@H]1O[C@@H](O[C@H]2[C@H](Oc3cc(O)c4c(c3)O[C@H](c3ccc(O)cc3)CC4=O)O[C@H](CO)[C@@H](O)[C@@H]2O)[C@H](O)[C@H](O)[C@H]1O` [naringin, Naringin], for which the “metabolites the enzyme contributes to” value at CYP 2D6 is listed as “three metabolites”. The “adverse effects in toxicity study” value in data set [2] is listed as “no adverse effects”. The CavSS was found to be 17.4 ± 19.9 ng/mL in data set [1] (setting [3]), 6.03 ± 9.48 ng/mL in data set [1] (setting [4]) and 11.7 ± 15.9 ng/mL in data set [1] (setting [5]). For the same compound, the Fluctuation was 612 ± 233% in data set [1] (setting [3]); 844 ± 1,030% in data set [1] (setting [4]); 728 ± 711% in data set [1] (naringin 42 mg kg^-1 p.o. three times a day, multiple dose, rat, (CmaxSS−CminSS)/CavSS×100%). In addition, in data set [1] (rats), the “accumulation in multiple-dose study” value is on record as “no significant accumulation”.
